US20250206761A1, “HALOINDOLE MACROCYCLIC COMPOUNDS FOR THE TREATMENT OF CANCER” (Hoffmann-La Roche Inc., priority 2022, published 2025)

What was measured:
SW620 (ATCC-CCL-227) = experiment: Cell viability assay, G12V (SW620); format: cell-based, human; details: Homo sapiens, SW-620; KRAS cell viability, SW620, 72 hrs, Cell Counting Kit-8
How it was run: (§1)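 Cells seeded at 5,000/well (NCI-H358) or 2,000/well (AGS, SW620), treated next day at 0.5% final DMSO for 72 h. Viability read by CCK-8 (OD450 minus OD650) after 2 h; IC50 from 4-parameter sigmoidal fit.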

[1] = system: AGS (ATCC-CRL-1739) cells; experiment: Cell viability assay, G12D (AGS); format: cell-based, human; details: Homo sapiens, KRAS cell viability, 72 hrs, Cell Counting Kit-8
How it was run: as §1

[2] = system: phosphorylation of ERK, KRAS G12C in NCJ-H358 cells; experiment: pERK inhibition assay, KRAS G12C; format: cell-based, human; details: 4 hours
How it was run: (§2)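 Seeding densities differed per line: 30,000/well for NCJ-H358 and SW620, 20,000/well for AGS, all in RPMI-1640 plus 10% FBS. After attachment overnight, compound was applied for 4 h. Phospho-ERK was then quantified by in-cell ELISA (OD450), with IC50 fitted sigmoidally.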

[3] = system: phosphorylation of ERK, KRAS G12V in SW620; experiment: pERK inhibition assay, KRAS G12V; format: cell-based, human
How it was run: as §2

[4] = system: phosphorylation of ERK, KRAS G12D in AGS cells; experiment: pERK inhibition assay, KRAS G12D; format: cell-based, human; details: 4 hours
How it was run: as §2

[5] = system: NCI-H358 (ATCC-CRL5807) cells; experiment: Cell viability assay, G12C (NCI-H358); format: cell-based, human; details: Homo sapiens; KRAS cell viability, NCI-H358, 72 hrs, Cell Counting Kit-8
How it was run: as §1

KRAS G12C-BRAF complex [6] = target: T1, KRAS G12C-BRAF complex (Homo sapiens (Human), UniProt P01116+P62937, G12C); experiment: KRAS G12C-BRAF NanoBit assay; format: cell-based; details: HEK293 cells, 3 hours of incubation
T1 sequence (P01116-2 other isoform, or with tags, fused parts or gaps G12C): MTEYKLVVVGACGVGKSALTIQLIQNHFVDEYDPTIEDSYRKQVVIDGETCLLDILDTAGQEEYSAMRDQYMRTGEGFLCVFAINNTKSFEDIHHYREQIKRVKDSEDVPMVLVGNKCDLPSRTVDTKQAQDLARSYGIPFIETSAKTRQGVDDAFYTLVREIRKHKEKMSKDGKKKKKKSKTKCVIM
T1 sequence (P62937 whole entry): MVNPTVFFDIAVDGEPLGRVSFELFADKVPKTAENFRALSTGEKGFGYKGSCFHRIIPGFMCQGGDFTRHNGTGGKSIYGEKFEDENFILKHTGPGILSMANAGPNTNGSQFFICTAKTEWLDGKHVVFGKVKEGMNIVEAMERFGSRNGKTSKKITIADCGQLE
Description: This assay is to measure the ability of tested compounds in disruption of the KRAS G12C-BRAF complex at the cellular level, we established the NanoBit cellular assay in mammalian HEK293 (ATCC) cells.
HEK293 cells were grown and maintained using DMEM medium (Thermo Fisher Scientific) with 10% fetal bovine serum and 1% penicillin/streptomycin. Both KRAS G12C and BRAF RBD were cloned into the NanoBit vectors ([…] vectors system, Promega) with the orientations SnmBit-KRAS G12C and BRAF RBD-LgBit, respectively, and co-transfected into HEK293 cells. Cells were then selected with 100 μg/mL Hygromycin B (10687010, Thermo Fisher) and Blasticidin (5 μg/mL) for 4 weeks to get the stable cell pool.
On the day of the assay, 75 nL of compound solution was presented in a 384-well assay plate as a 16-point 3-fold dilution starting from a final concentration of 30 μM in DMSO. Then cells were seeded at 10,000 cells/25 μL/well in a 384-well plate. After 3 hours of incubation, 6 μL of volume of Nano-Glo® Live Cell Substrate (Promega) was added into each well. Monitor luminescence using ultra384 model in Envision at 20 minutes. Compounds that facilitate disruption of the KRAS G12C-BRAF RBD complex were identified as those eliciting a decrease of luminescence relative to DMSO control wells.

[7] = target: KRAS G12V binding to BRAF (Homo sapiens (Human), UniProt P01116+P62937, G12V); experiment: KRAS-BRAF with CYPA (500 nM) interaction assay (TR-FRET), G12V; format: biochemical
KRAS G12V binding to BRAF, sequence (P01116-2 other isoform, or with tags, fused parts or gaps G12V): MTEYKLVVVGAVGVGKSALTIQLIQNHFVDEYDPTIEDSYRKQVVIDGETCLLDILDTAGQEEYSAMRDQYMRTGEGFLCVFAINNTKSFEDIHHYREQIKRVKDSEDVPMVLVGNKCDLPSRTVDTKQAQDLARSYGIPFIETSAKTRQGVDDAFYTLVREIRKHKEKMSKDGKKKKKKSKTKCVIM
KRAS G12V binding to BRAF, sequence (P62937 whole entry): as the sequence (P62937 whole entry) above
How it was run: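 A TR-FRET assay measured how compound, in the presence of CYPA, disrupts binding of GMPPNP-loaded 6His-KRAS G12V to BRAF. The buffer contained 25 mM HEPES PH=7.4, 0.002% Tween20, 0.1% BSA, 100 mM NaCl, 5 mM MgCl2 and 10 μM GMPPNP. Compounds ran as a 16-point 3-fold dilution series from 10 μM for 3 hours.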

[8] = target: KRAS G12D binding to BRAF (Homo sapiens (Human), UniProt P01116+P62937, G12D); experiment: KRAS-BRAF with CYPA (500 nM) interaction assay (TR-FRET), G12D; format: biochemical
KRAS G12D binding to BRAF, sequence (P01116-2 other isoform, or with tags, fused parts or gaps G12D): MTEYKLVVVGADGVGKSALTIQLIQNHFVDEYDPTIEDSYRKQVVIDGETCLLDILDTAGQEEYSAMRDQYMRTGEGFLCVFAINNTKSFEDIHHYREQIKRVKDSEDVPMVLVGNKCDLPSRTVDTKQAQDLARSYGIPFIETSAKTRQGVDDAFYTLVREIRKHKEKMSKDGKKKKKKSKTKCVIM
KRAS G12D binding to BRAF, sequence (P62937 whole entry): as the sequence (P62937 whole entry) above

KRAS G12C-BRAF complex [9] = target: T1, KRAS G12C-BRAF complex; experiment: KRAS-BRAF with CYPA (500 nM) interaction assay (TR-FRET), G12C; format: biochemical
[10] = Homo sapiens, SW-620, SW620, 4 hours

IC50 (SW620 (ATCC-CCL-227)) | IC50 [1] | IC50 ([2]; Homo sapiens) | IC50 [3, 10] | IC50 ([4]; Homo sapiens) | IC50 [5] | IC50 (KRAS G12C-BRAF complex [6]) | SMILES | IC50 [7] | IC50 [8] | IC50 (KRAS G12C-BRAF complex [9]) | IC50 [2] | IC50 ([3]; SW620, 4 hours) | IC50 [4]
447 nM | 1230 nM | 1 nM | 45 nM | 12 nM | < 1 nM | 11000 nM | CCn1c(-c2cc(N3CCN(C)CC3)cnc2[C@H](C)OC)c2c3cc(c(F)cc31)-c1csc(n1)C[C@H](NC(=O)[C@H](C(C)C)N1CCC3(CN(C(=O)[C@H](F)Cl)C3)C1=O)C(=O)N1CCC[C@H](N1)C(=O)OCC(C)(C)C2 (atropisomer, axis not shown; (M)) [Example 29, (2S)-2-[2-[(2R)-2-chloro-2-fluoro-acetyl]-5-oxo-2,6-diazaspiro[3.4]octan-6-yl]-N-[(7S,13S)-21-ethyl-24-fluoro-(20M)-20-[2-[(1S)-1-methoxyethyl]-5-(4-methylpiperazin-1-yl)-3-pyridyl]-17,17-dimethyl-8,14-dioxo-15-oxa-4-thia-9,21,27,28-tetrazapentacyclo[17.5.2.1^2,5.1^9,13.0^22,26]octacosa-1(25),2,5(28),19,22(26),23-hexaen-7-yl]-3-methyl-butanamide] |  |  |  |  |  | 
130 nM | 1500 nM | 12 nM | 41 nM | 124 nM | 5 nM | 54 nM | CO[C@@H](C)c1ncc(N2CCOCC2)cc1-c1c2c3cc(c(F)cc3n1CC(F)(F)F)-c1csc(n1)C[C@H](NC(=O)[C@H](C(C)C)N1CCC3(CN(C(=O)[C@H](F)Cl)C3)C1=O)C(=O)N1CCC[C@H](N1)C(=O)OCC(C)(C)C2 (atropisomer, axis not shown; (M)) [Example 58, (2S)-2-[2-[(2R)-2-chloro-2-fluoro-acetyl]-5-oxo-2,6-diazaspiro[3.4]octan-6-yl]-N-[(7S,13S)-24-fluoro-(20M)-20-[2-[(1S)-1-methoxyethyl]-5-morpholino-3-pyridyl]-17,17-dimethyl-8,14-dioxo-21-(2,2,2-trifluoroethyl)-15-oxa-4-thia-9,21,27,28-tetrazapentacyclo[17.5.2.1^2,5.1^9,13.0^22,26]octacosa-1(25),2,5(28),19,22(26),23-hexaen-7-yl]-3-methyl-butanamide] |  |  |  |  |  | 
59 nM | 1300 nM | 6 nM | 33 nM | 57 nM | 3 nM | 23 nM | CO[C@@H](C)c1ncc(N2CCOCC2)cc1-c1c2c3cc(c(F)cc3n1CC(F)(F)F)-c1csc(n1)C[C@H](NC(=O)[C@H](C(C)C)N1CC[C@]3(CCN(C(=O)[C@H](F)Cl)C3)C1=O)C(=O)N1CCC[C@H](N1)C(=O)OCC(C)(C)C2 (atropisomer, axis not shown; (M)) [Example 57, (2S)-2-[(5S)-7-[(2R)-2-chloro-2-fluoro-acetyl]-1-oxo-2,7-diazaspiro[4.4]nonan-2-yl]-N-[(7S,13S)-24-fluoro-(20M)-20-[2-[(1S)-1-methoxyethyl]-5-morpholino-3-pyridyl]-17,17-dimethyl-8,14-dioxo-21-(2,2,2-trifluoroethyl)-15-oxa-4-thia-9,21,27,28-tetrazapentacyclo[17.5.2.1^2,5.1^9,13.0^22,26]octacosa-1(25),2,5(28),19,22(26),23-hexaen-7-yl]-3-methyl-butanamide] |  |  |  |  |  | 

SMILES | IC50 (SW620 (ATCC-CCL-227)) | IC50 [1] | IC50 ([2]; Homo sapiens) | IC50 [3, 10] | IC50 ([4]; Homo sapiens) | IC50 [5] | IC50 (KRAS G12C-BRAF complex [6]) | IC50 [7] | IC50 [8] | IC50 (KRAS G12C-BRAF complex [9]) | IC50 [2] | IC50 ([3]; SW620, 4 hours) | IC50 [4]
CCn1c(-c2cc(N3CCN(C)CC3)cnc2[C@H](C)OC)c2c3cc(c(F)cc31)-c1csc(n1)C[C@H](NC(=O)[C@H](C(C)C)N1CCC[C@]3(CCN(C(=O)[C@@H](F)Cl)C3)C1=O)C(=O)N1CCC[C@H](N1)C(=O)OCC(C)(C)C2 [Example 22, (2S)-2-[(5R)-2-[(2S)-2-chloro-2-fluoro-acetyl]-6-oxo-2,7-diazaspiro[4.5]decan-7-yl]-N-[(7S,13S)-21-ethyl-24-fluoro-(20M)-20-[2-[(1S)-1-methoxyethyl]-5-(4-methylpiperazin-1-yl)-3-pyridyl]-17,17-dimethyl-8,14-dioxo-15-oxa-4-thia-9,21,27,28-tetrazapentacyclo[17.5.2.1^2,5.1^9,13.0^22,26]octacosa-1(25),2,5(28),19,22(26),23-hexaen-7-yl]-3-methyl-butanamide] |  |  |  |  |  |  | 209 nM | > 10 µM | > 10 µM | 199 nM | 53 nM | 1020 nM | 1060 nM
